Reference: US11154569B2, “Ruthenium μ-nitrido complexes and their use as calcium uptake inhibitors” (CORNELL UNIVERSITY, priority 2018, dated 2021)
Substitutions are numbered along the chain they refer to.

Tests used:
[1] = target: T1, human MCU S259A mutant (Homo sapiens, UniProt Q8NE86, S259A); experiment: mCa2+ uptake in permeabilized HEK293T cells expressing MCU S259A mutant; type: cell-based; conditions: C-2 10 nM, Ru360 500 nM
T1 construct: stably expressing flag-tagged full-length human wild type MCU (MCU^WT) or the mutant S259A (MCU^S259A); Flag; expressed in transfected cells
T1 sequence (Q8NE86 51-351 S259A): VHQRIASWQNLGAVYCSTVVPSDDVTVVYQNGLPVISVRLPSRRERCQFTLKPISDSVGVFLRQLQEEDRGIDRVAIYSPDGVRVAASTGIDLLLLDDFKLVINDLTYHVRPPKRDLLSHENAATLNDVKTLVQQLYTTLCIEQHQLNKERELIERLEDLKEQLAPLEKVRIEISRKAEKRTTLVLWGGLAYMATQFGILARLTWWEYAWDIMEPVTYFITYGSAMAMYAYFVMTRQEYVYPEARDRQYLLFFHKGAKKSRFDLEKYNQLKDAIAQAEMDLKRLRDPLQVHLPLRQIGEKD
T1 sequence (Q9H4I9 48-107 partner limits assumed): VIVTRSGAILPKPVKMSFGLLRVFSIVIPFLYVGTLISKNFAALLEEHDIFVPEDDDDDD
Procedure: (§1) An equal number of IHEK293T (6×10^6 cells) were washed in Ca^2+ free PBS, pH 7.4, resuspended and permeabilized with 40 μg/ml digitonin in 1.5 ml of intracellular medium (ICM) composed of 120 mM KCl, 10 mM NaCl, 1 mM K—H2PO4, 20 mM HE PES-Tris, pH 7.2 and 2 μM thapsigargin to block the SERCA pump. All measurements were performed in the presence of 2 mM succinate. The permeabilized cells were loaded with JC-1 (800 nM) and Fura2-FF (0.5 μM), respectively. Fluorescence was monitored in a multi-wavelength excitation dual-wavelength emission fluorimeter. [Ca^2+]out is represented as the excitation ratio (340 nm/380 nm) of Fura2-FF/FA fluorescence and ΔΨm as the ratio of the fluorescence of J-aggregate (570 nm excitation/595 nm emission) and monomer (490 nm excitation/535 nm emission) forms of JC-1. A series of extra-mitochondrial Ca^2+ bolus (20 μM) was added and mitochondrial uncoupler, CCCP (2 jμM), were added at the indicated time points. All of the experiments were performed at 37° C. with constant stirring.
Having observed the high potency of C-2 compared to Ru360, the mechanism of action of C-2 was next investigated. […] HIEK293T cells stably expressing flag-tagged full-length human wild type MCU (MCU^WT) or the mutant S259A (MCU^S259A) were permeabilized and mCa^2+ uptake was measured as above.

[2] = target: T2, MCU C97A mutant (Homo sapiens, UniProt Q8NE86, C97A); experiment: mCa2+ uptake in permeabilized HEK293T cells expressing MCU C97A mutant; type: cell-based; conditions: C-2 10 nM, Ru360 500 nM
T2 construct: stably expressing Flag-tagged full-length wild-type MCU (MCU^WT) and the mutant C97A (MCU^C97A); Flag; expressed in transfected cells
T2 sequence (Q8NE86 51-351 C97A): T1 sequence (Q8NE86 51-351 S259A) with C47A, A209S
T2 sequence (Q9H4I9 48-107 partner limits assumed): T1 sequence (Q9H4I9 48-107 partner limits assumed)
Procedure: as §1
To determine if C-2 interacts with the NTD, HEK293T cells stably expressing Flag-tagged full-length wild-type MCU (MCU^WT) and the mutant C97A (MCU^C97A) were permeabilized, and mCa^2+ uptake was measured as above.

[3] = target: T3, recombinant human MCU-NTD (residues 72-189) (Homo sapiens, UniProt Q8NE86); experiment: Interaction with recombinant MCU-NTD (NMR HSQC, SDS-PAGE); type: binding; conditions: for interaction with MCU-NTD in solution: cell-free, C-2 at 3-fold molar excess
T3 construct: recombinant human MCU-NTD (residues 72-189)
T3 sequence (Q8NE86 72-189): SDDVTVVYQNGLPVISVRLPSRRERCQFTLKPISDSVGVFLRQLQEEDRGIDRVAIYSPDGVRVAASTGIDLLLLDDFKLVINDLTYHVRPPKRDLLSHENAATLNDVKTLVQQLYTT
Text: To further elucidate the potential interaction of C-2 with the MCU-NTD, the interaction between C-2 and the uniformly ^15N-labeled recombinant human MCU-NTD (residues 72-189) was investigated using solution nuclear magnetic resonance (NMR) spectroscopy.
To determine if the MCU-NTD remained intact upon treatment with C-2, the insoluble aggregate (Insol.+C-2) was resuspended in loading dye and the migration of the protein was compared to untreated soluble MCU-NTD (Sol.) by SDIS-PAGE analysis. […] The appearance of the trimer and higher order aggregates upon treatment with C-2 may indicate that the MCU-NTD conformation induced by C-2 is different from that of the native conformation. Similar MCU-NTD aggregation was observed when the MCU-NTD was treated with lower molar ratios (i.e. 1:2 and 1:1) of C-2.
The clustering of these perturbations could be a result of i) direct binding with the compound, ii) indirect effects of the lower soluble protein concentration shifting the self-association equilibrium, or iii) C-2-mediated modifications to the protein. […] Thus, the NTD may be a potent target for MCU inhibition that is only accessible to C-2 because of its enhanced membrane permeability when compared to Ru360.

N.N.N.N.N.N.N.N.[Cl-].[Cl-].[N-3].[Ru+4].[Ru+4] [C-2, [Ru2(μ-N)(NH3)8Cl2]Cl3]
effect of MCU S259A mutation on MCU inhibition compared to MCU WT cells [1]: almost no change in the inhibitory activity | effect of MCU C97A mutation on MCU inhibition compared to MCU WT cells [2]: significantly reduced MCU inhibitory activity | SDS-PAGE of protein precipitate formed with MCU-NTD ([3]; Coomassie blue staining): distinct and systematic laddering corresponding to the presence of monomer, dimer, trimer, tetramer, and higher aggregate formation | interaction with MCU-NTD in solution [3]: rapid formation of insoluble precipitate

N.N.N.N.N.N.N.N.O=C[O-].O=C[O-].[O-2].[Ru+3].[Ru+4] [Ru360, reference compound]
effect of MCU S259A mutation on MCU inhibition compared to MCU WT cells [1]: partial resistance to Ru360 inhibition | effect of MCU C97A mutation on MCU inhibition compared to MCU WT cells [2]: almost no effect on the activity | interaction with MCU-NTD in solution [3]: interacts with the purified MCU-NTD in a cell-free system, giving rise to precipitation and systematic laddering
